Experimental data reported in patent publication US7202237B2, “Pyridylether derivatives, their preparation and use” (NeuroSearch A/S, priority 1997, dated 2007).
Structures can show the parent of a compound that is named as a salt. Where two headings read alike, the source gives them in different places.

Key:
[1] = target: nAChRs comprised of α4 and β2 subunits (Rattus norvegicus, UniProt P09483+P12390); assay: In vitro inhibition of 3H-cytisine binding
Procedure: In Vitro Inhibition of ^3H-cytisine Binding
The predominant subtype with high affinity for nicotine is comprised of α4 and β2 subunits. nAChRs of the latter type can selectively be labelled by the nicotine agonist ^3H-cytisine.
Tissue Preparation: Preparations are performed at 0–4° C. unless otherwise indicated. […] The homogenate is centrifuged at 27,000×g for 10 min. The supernatant is discarded and the pellet is resuspended in fresh buffer and centrifuged a second time. The final pellet is resuspended in fresh buffer (35 ml per g of original tissue) and used for binding assays.
Assay: Aliquots of 500 μl homogenate are added to 25 μl of test solution and 25 μl of ^3H-cytisine (1 nM, final concentration), mixed and incubated for 90 min at 2° C. Non-specific binding is determined using (−)-nicotine (100 μM, final concentration). After incubation the samples are added 5 ml of ice-cold buffer and poured directly onto Whatman GF/C glass fibre filters under suction and immediately washed with 2×5 ml ice-cold buffer. The amount of radioactivity on the filters is determined by conventional liquid scintillation counting. Specific binding is total binding minus non-specific binding.

[2] = target: nAChR formed by the α7 subunit isoform (Rattus norvegicus, UniProt Q05941); assay: biochemical; assay type: binding
[3] = target: T1, neuronal nicotinic receptors (α4β2 subtype of nicotinic receptors) (Rattus norvegicus, UniProt P09483+P12390); assay: In vitro inhibition of 3H-epibatidin binding
T1 construct: The forebrain (÷cerebellum) from a male Wistar rat (150–250 g) is homogenized; from tissue; host or cells: rat forebrain (without cerebellum) membrane homogenate
Procedure: In Vitro Inhibition of ^3H-epibatidin Binding
The high affinity binding site for ^3H-epibatidin is most certainly binding to the α4β2 subtype of nicotinic receptors. The identity of the low affinity site is still unknown; does it represent a second nicotinic receptor or a second site in the same receptor.
Tissue preparation: Preparations are performed at 0–4° C. unless otherwise indicated. The forebrain (÷cerebellum) from a male Wistar rat (150–250 g) is homogenized for 10–20 sec in 20 ml Tris, HCl (50 mM, pH 7.4) using an Ultra-Turrax homogenizer. The tissue suspension is centrifuged at 27,000×g for 10 min. The supernatant is discarded and the pellet is washed three times by centrifugation at 27,000×g for 10 min in 20 ml fresh buffer, and the final pellet is resuspended in fresh buffer (400 ml per g of original tissue) and used for binding assays.
Assay: Aliquots of 2.0 ml homogenate are added to 0.100 ml of test solution and 0.100 ml of ^3H-epibatidin (0.3 nM, final concentration), mixed and incubated for 60 min at room temperature. Non-specific binding is determined using (−)-nicotine (30 μM, final concentration). After incubation the samples are poured directly onto Whatman GF/C glass fibre filters (presoaked in 0.1% PEI for at least 20 min) under suction and immediately washed with 2×5 ml ice-cold buffer. The amount of radioactivity on the filters is determined by conventional liquid scintillation counting. Specific binding is total binding minus non-specific binding.

[4] = times that of morphine; cited from earlier work
[5] = rat cerebral cortex homogenate, 1 nM 3H-cytisine, read-out: 3H-cytisine IC50
[6] = rat forebrain homogenate, 0.3 nM 3H-epibatidin, read-out: 3H-epibatidin IC50

Chain of nAChR formed by the α7 subunit isoform (Q05941 23-502): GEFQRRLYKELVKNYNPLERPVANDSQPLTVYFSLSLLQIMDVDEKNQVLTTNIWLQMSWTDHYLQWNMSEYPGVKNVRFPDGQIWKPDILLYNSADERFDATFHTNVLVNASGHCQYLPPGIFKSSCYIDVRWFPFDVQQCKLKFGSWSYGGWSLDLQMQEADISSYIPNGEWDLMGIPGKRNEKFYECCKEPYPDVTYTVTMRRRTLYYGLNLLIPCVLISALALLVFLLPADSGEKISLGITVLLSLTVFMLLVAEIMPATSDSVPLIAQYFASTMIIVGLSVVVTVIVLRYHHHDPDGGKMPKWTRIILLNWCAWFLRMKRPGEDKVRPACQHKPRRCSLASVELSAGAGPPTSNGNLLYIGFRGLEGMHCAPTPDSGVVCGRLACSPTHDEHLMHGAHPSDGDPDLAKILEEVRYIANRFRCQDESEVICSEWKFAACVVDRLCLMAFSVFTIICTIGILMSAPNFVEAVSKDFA
Chain of nAChRs comprised of α4 and β2 subunits (P09483 31-630): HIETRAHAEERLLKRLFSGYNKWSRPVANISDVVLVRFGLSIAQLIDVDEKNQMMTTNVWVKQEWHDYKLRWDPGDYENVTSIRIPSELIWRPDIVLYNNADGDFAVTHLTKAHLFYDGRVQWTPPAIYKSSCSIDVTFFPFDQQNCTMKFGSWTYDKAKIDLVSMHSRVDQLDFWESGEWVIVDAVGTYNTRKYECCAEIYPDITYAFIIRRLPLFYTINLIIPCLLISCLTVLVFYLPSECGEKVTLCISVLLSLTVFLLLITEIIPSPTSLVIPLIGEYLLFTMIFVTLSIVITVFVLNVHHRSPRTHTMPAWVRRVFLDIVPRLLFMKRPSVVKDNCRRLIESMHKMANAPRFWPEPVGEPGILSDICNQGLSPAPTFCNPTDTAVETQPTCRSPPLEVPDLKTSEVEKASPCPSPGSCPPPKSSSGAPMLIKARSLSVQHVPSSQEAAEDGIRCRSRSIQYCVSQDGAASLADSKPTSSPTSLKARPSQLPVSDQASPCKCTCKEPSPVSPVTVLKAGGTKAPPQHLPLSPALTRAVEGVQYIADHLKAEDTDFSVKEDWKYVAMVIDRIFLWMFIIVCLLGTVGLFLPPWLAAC
Chain of nAChRs comprised of α4 and β2 subunits (P12390 25-500): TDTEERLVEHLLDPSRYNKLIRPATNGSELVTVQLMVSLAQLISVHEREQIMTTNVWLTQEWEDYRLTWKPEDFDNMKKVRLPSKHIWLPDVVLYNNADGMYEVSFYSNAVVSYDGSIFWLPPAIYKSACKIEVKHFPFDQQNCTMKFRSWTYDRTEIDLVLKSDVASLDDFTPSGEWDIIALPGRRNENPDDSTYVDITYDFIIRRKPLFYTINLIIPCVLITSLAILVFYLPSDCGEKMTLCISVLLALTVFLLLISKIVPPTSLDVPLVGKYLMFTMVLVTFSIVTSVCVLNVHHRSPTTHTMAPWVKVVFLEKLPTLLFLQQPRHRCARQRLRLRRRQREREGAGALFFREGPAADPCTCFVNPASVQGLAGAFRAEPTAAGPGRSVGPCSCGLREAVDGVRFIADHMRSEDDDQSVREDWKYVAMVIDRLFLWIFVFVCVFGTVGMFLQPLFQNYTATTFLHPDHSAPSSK
T1 sequence (P09483 31-630): as the sequence (P09483 31-630) above
T1 sequence (P12390 25-500): as the sequence (P12390 25-500) above

| Structure (SMILES) | IC50 [1, 5] [nM] | IC50 [2] [nM] | IC50 [3, 6] [nM] | further results |
| --- | --- | --- | --- | --- |
| c1cncc(OC2CCCNCC2)c1 (racemic) (as salt: fumaric acid salt) [Compound 7b, (±)-4-Oxy-(3-pyridyl)-homopiperidine fumaric acid salt] |  |  |  | melting point: 117 to 119 °C |
| CN1CCC(Oc2cccnc2)C1 (racemic) [Compound 1a, (±)-1-Methyl-3-oxy-(3-pyridyl)-pyrrolidine] | 100 | 16000 | 700 |  |
| c1cncc(OC2CCNC2)c1 (racemic) [Compound 1b, (±)-3-Oxy-(3-pyridyl)-pyrrolidine] |  |  |  | IC50 [1]: 70 nM; IC50 ([2]; read-out: 3H-α-bungarotoxin IC50): > 30000 nM; IC50 [3]: 410 nM |
| CN1CCCC(Oc2cccnc2)C1 (racemic) [Compound 3a, (±)-1-Methyl-3-oxy-(3-pyridyl)-piperidine] | 190 | 19000 | 720 |  |
| c1cncc(OC2CCCNCC2)c1 (racemic) [Compound 7b, (±)-4-Oxy-(3-pyridyl)-homopiperidine fumaric acid salt] | 60 | 20000 | 300 |  |
| Clc1ccc(C2CC3CCC2N3)cn1 (centres unmarked) [Epibatidine] |  |  |  | analgesic potency relative to morphine [4]: ~500 times |
